From ChEMBL document CHEMBL1144596, “Synthesis of O-prenylated and O-geranylated derivatives of 5-benzylidene2,4-thiazolidinediones and evaluation of their free radical scavenging activity as well as effect on some phase II antioxidant/detoxifying enzymes” (Bioorg Med Chem Lett, 2007)
pIC50: −log10 of the molar value. One block for each compound: values may come before it.

Key:
[1] = Inhibition of DPPH radical scavenging activity; assay type: functional
Mus musculus [2] = organism: Mus musculus; experiment: Stimulation of CAT level per protein in Swiss Albino mouse liver; assay type: functional
Mus musculus [3] = experiment: Hepatoprotecting activity in Swiss Albino mouse liver assessed as […] level at 3 mg/kg, po for 20 days; assay type: functional
Mus musculus [4] = organism: Mus musculus; experiment: Stimulation of GST level in Swiss Albino mouse liver; assay type: functional
Mus musculus [5] = organism: Mus musculus; experiment: Effect on lipid-peroxidation level per protein in Swiss Albino mouse liver; assay type: functional, organism-based
Mus musculus [6] = experiment: Hepatoprotecting activity in Swiss Albino mouse liver assessed as urea level at 3 mg/kg, po for 20 days
Mus musculus [7] = organism: Mus musculus; experiment: Stimulation of SOD level per protein in Swiss Albino mouse liver; assay type: functional
Mus musculus [8] = experiment: Hepatoprotecting activity in Swiss Albino mouse liver assessed as ALT level at 3 mg/kg, po for 20 days; assay type: functional
Mus musculus [9] = organism: Mus musculus; experiment: Stimulation of GSH level per protein in Swiss Albino mouse liver; assay type: functional

Structure (SMILES): CC(C)=CCOc1ccccc1/C=C1/SC(=O)NC1=O
pIC50 [1]: 4.36

Structure (SMILES): COc1cc(/C=C2/SC(=O)NC2=O)ccc1O
Activity (Mus musculus [2]): 16.85 U/mg | Activity (Mus musculus [3]): 38.1 IU/L | Activity (Mus musculus [4]): 220.8 nmol/mg/min | Activity (Mus musculus [5]): 0.143 nmol/mg | Urea level (Mus musculus [6]): 13.83 mg/dL | Activity (Mus musculus [7]): 65.45 U/mg | pIC50 [1]: 5.60 | Activity (Mus musculus [8]): 4.8 IU/L | Activity (Mus musculus [9]): 184.09 nmol/mg

Structure (SMILES): O=C1NC(=O)/C(=C\c2ccccc2O)S1
pIC50 [1]: 4.63

Structure (SMILES): COc1cc(/C=C2/SC(=O)NC2=O)cc(OC)c1O
pIC50 [1]: 5.55

Structure (SMILES): Cc1c(C)c2c(c(C)c1O)CC[C@@](C)(CCC[C@H](C)CCC[C@H](C)CCCC(C)C)O2 [ALPHA-TOCOPHEROL]
pIC50 [1]: 5.64

Structure (SMILES): O=C1NC(=O)/C(=C\c2ccc(O)cc2)S1
pIC50 [1]: 4.92

Structure (SMILES): COc1cc(/C=C2/SC(=O)NC2=O)cc(OC)c1OCC=C(C)C
Activity (Mus musculus [2]): 23.97 U/mg | Activity (Mus musculus [3]): 37.99 IU/L | Activity (Mus musculus [4]): 140.54 nmol/mg/min | Activity (Mus musculus [5]): 0.158 nmol/mg | Urea level (Mus musculus [6]): 16.53 mg/dL | Activity (Mus musculus [7]): 67.45 U/mg | pIC50 [1]: 5.39 | Activity (Mus musculus [8]): 7.3 IU/L | Activity (Mus musculus [9]): 238.22 nmol/mg

More lines, main results first:

pIC50 [1]: 4.49
Structure (SMILES): COc1cc(/C=C2/SC(=O)NC2=O)cc(OC)c1OC/C=C(/C)CCC=C(C)C

pIC50 [1]: 4.76
Structure (SMILES): COc1cc(/C=C2/SC(=O)NC2=O)ccc1OC/C=C(/C)CCC=C(C)C

pIC50 [1]: 4.75
Structure (SMILES): COc1cc(/C=C2/SC(=O)NC2=O)ccc1OCC=C(C)C

pIC50 [1]: 5.01
Structure (SMILES): CC(C)=CCC/C(C)=C\COc1ccc(/C=C2/SC(=O)NC2=O)cc1
Activity (Mus musculus [2]): 22.32 U/mg | Activity (Mus musculus [3]): 32.88 IU/L | Activity (Mus musculus [4]): 160.33 nmol/mg/min | Activity (Mus musculus [5]): 0.148 nmol/mg | Urea level (Mus musculus [6]): 14.69 mg/dL | Activity (Mus musculus [7]): 70.15 U/mg | Activity (Mus musculus [8]): 6.32 IU/L | Activity (Mus musculus [9]): 245.32 nmol/mg

pIC50 [1]: 4.92
Structure (SMILES): CC(C)=CCC/C(C)=C/COc1ccccc1/C=C1/SC(=O)NC1=O

pIC50 [1]: < 4.30
Structure (SMILES): CC(C)=CCOc1ccc(/C=C2/SC(=O)NC2=O)cc1
